Key:
[1] = system: Bacillus subtilis (ATCC43639); assay: Microtitre plate assay, IC90 determination; type: cell-based; conditions: 90% inhibitory concentration for bacterial growth
Experimental: (§1) The bacteria used in this study were grown overnight in flasks containing 100 ml Mueller-Hinton Broth (Becton Dickinson—cat. no. 275730) in sterile de-ionized water, with shaking, at 37° C. Stocks (0.5 ml/tube) were stored at −70° C. until use. Bacteria titrations were performed in microtiter plates and colony forming units (CFUs) were determined In general, an inoculum level of approximately 100 CFUs was used for susceptibility testing.
(§2) Flat-bottom, sterile 96-well plastic microtiter plates were filled with 180 μl of sterile deionized water, supplemented with 0.25% BSA. Subsequently, stock solutions (7.8× final test concentration) of compounds were added in 45 μl volumes in column 2. Serial five-fold dilutions (45 μl in 180 μl ) were made directly in the microtiter plates from column 2 to reach column 11. Untreated control samples with (column 1) and without (column 12) inoculum were included in each microtiter plate. Depending on the bacteria type, approximately 10 to 60 CFU per well of bacteria inoculum (100 TCID50), in a volume of 100 μl in 2.8× Mueller-Hinton broth medium, was added to the rows A to H, except column 12. The same volume of broth medium without inoculum was added to column 12 in row A to H. The cultures were incubated at 37° C. for 24 hours under a normal atmosphere (incubator with open air valve and continuous ventilation). At the end of incubation, one day after inoculation, the bacterial growth was quantitated fluorometrically. Therefore resazurin (0.6 mg/ml) was added in a volume of 20 μl to all wells 3 hours after inoculation, and the plates were re-incubated overnight. A change in colour from blue to pink indicated the growth of bacteria. The fluorescence was read in a computer-controlled fluorometer (Cytofluor Biosearch) at an excitation wavelength of 530 nm and an emission wavelength of 590 nm. The % growth inhibition achieved by the compounds was calculated according to standard methods. The IC90 (expressed in μg/ml) was defined as the 90% inhibitory concentration for bacterial growth.

[2] = system: Enterococcus faecalis (ATCC14506); assay: Microtitre plate assay, IC90 determination; type: cell-based; conditions: 90% inhibitory concentration for bacterial growth
Experimental: as §1, §2

[3] = system: Enterococcus faecalis (ATCC29212); assay: Microtitre plate assay, IC90 determination; type: cell-based; conditions: 90% inhibitory concentration for bacterial growth
Experimental: as §1, §2

[4] = system: Escherichia coli (ATCC25922); assay: Microtitre plate assay, IC90 determination; type: cell-based; conditions: 90% inhibitory concentration for bacterial growth
Experimental: as §1, §2

[5] = system: Listeria monocytogenes (ATCC49594); assay: Microtitre plate assay, IC90 determination; type: cell-based; conditions: 90% inhibitory concentration for bacterial growth
Experimental: as §1, §2

[6] = system: Pseudomonas aeruginosa (ATCC27853); assay: Microtitre plate assay, IC90 determination; type: cell-based; conditions: 90% inhibitory concentration for bacterial growth
Experimental: as §1, §2

[7] = system: Staphylococcus aureus (ATCC25923); assay: Microtitre plate assay, IC90 determination; type: cell-based; conditions: 90% inhibitory concentration for bacterial growth
Experimental: as §1, §2

[8] = system: Staphylococcus aureus (ATCC29213); assay: Microtitre plate assay, IC90 determination; type: cell-based; conditions: 90% inhibitory concentration for bacterial growth
Experimental: as §1, §2

[9] = system: Staphylococcus aureus (ATCC43300); assay: Microtitre plate assay, IC90 determination; type: cell-based; conditions: 90% inhibitory concentration for bacterial growth
Experimental: as §1, §2

[10] = system: Streptococcus mutans (ATCC33402); assay: Microtitre plate assay, IC90 determination; type: cell-based; conditions: 90% inhibitory concentration for bacterial growth
Experimental: as §1, §2

[11] = system: Streptococcus pneumoniae (ATCC6305); assay: Microtitre plate assay, IC90 determination; type: cell-based; conditions: 90% inhibitory concentration for bacterial growth
Experimental: as §1, §2

[12] = system: Streptococcus pyogens (ATCC8668); assay: Microtitre plate assay, IC90 determination; type: cell-based; conditions: 90% inhibitory concentration for bacterial growth
Experimental: as §1, §2

[13] = system: methicilline resistant Staphylococcus aureus (MRSA) (a clinical isolate from the University of Antwerp); assay: Microtitre plate assay, IC90 determination; type: cell-based; conditions: 90% inhibitory concentration for bacterial growth
Experimental: as §1, §2

S. aureus = assay: Time kill assay; type: cell-based, Staphylococcus aureus; conditions: for bactericidal activity in time kill assay: observed at 1 and 10 times MIC90
Excerpt: (§3) Bactericidal or bacteriostatic activity of the compounds may be determined in a time kill assay using the broth microdilution method*. In a time kill assay on Staphylococcus aureus and methicillin resistant S. aureus (MRSA), the starting inoculum of S. aurues and MRSA is 10^6 CFU/ml in Muller Hinton broth. The antibacterial compounds are used at the concentration of 0.1 to 10 times the MIC (i.e. IC90 as determined in microtitre plate assay). Wells receiving no antibacterial agent constitute the culture growth control. The plates containing the microorganism and the test compounds are incubated at 37° C. After 0, 4, 24, and 48 hrs of incubation samples are removed for determination of viable counts by serial dilution (10^−1 to 10^−6) in sterile PBS and plating (200 μl) on Mueller Hinton agar. The plates are incubated at 37° C. for 24 hrs and the number of colonies are determined Killing curves can be constructed by plotting the log10 CFU per ml versus time. A bactericidal effect is commonly defined as 3-log10 decrease in number of CFU per ml as compared to untreated inoculum. The potential carryover effect of the drugs is removed by serial dilutions and counting the colonies at highest dilution used for plating. No carryover effect is observed at the dilution of 10^−2 used for plating. […] Antimicrob. Agents Chemother. 40, 839-845 (1996).
A time kill assay was performed with compound 102 and the control drug ciprofloxacin.

[14] = system: Escherichia coli (ATCC35218); assay: Microtitre plate assay, IC90 determination; type: cell-based; conditions: 90% inhibitory concentration for bacterial growth
Experimental: as §1, §2

MRSA = assay: Time kill assay; type: cell-based, methicillin resistant S. aureus
Excerpt: as §3, with “(1996). […]” for “(1996).”

SMILES | IC90 BSU 43639 [1] [µg/mL] | IC90 EFA 14506 [2] [µg/mL] | IC90 EFA 29212 [3] [µg/mL] | IC90 ECO 25922 [4] [µg/mL] | IC90 LMO 49594 [5] [µg/mL] | IC90 PAE 27853 [6] [µg/mL] | IC90 STA 25923 [7] [µg/mL] | IC90 STA 29213 [8] [µg/mL] | IC90 STA 43300 [9] [µg/mL] | IC90 SMU 33402 [10] [µg/mL] | IC90 SPN 6305 [11] [µg/mL] | IC90 SPY 8668 [12] [µg/mL] | IC90 STA RMETH [13] [µg/mL] | MIC (1× MIC used in time kill assay) (S. aureus; MIC i.e. IC90 as determined in microtitre plate assay) [µg/mL] | growth in time kill assay (S. aureus; at 0.1 times the MIC) | bactericidal activity in time kill assay (S. aureus) | IC90 ECO 35218 [14] [µg/mL] | bactericidal activity in time kill assay (MRSA)
COc1nc2ccc(Br)cc2cc1C(c1ccccc1)C(O)(CC[N+](C)(C)C)c1cccc2ccccc12.[I-] (single isomer, unassigned) [Compound 102] | 2.8 | 2.8 | 2.8 | 13.9 | 2.2 | 13.9 | 2.2 | 2.8 | 3.5 | 2.5 | 3.1 | 2.5 | 2.8 | 2.3 | followed the control in growth | bactericidal activity |  | 
COc1nc2ccc(Br)cc2cc1C(c1ccccc1)C(O)(CC[N+](C)(C)C)c1cccc2ccccc12.[I-] (single isomer, unassigned) [Compound 103] | 2.8 | 2.8 | 2.8 | 11.1 | 0.5 | 13.9 | 2.2 | 2.0 | 2.8 | 2.8 | 3.5 | 2.8 | 2.2 |  |  |  | 17.5 | 
O=C(O)c1cn(C2CC2)c2cc(N3CCNCC3)c(F)cc2c1=O [ciprofloxacin, reference compound] |  |  |  |  |  |  |  |  |  |  |  |  |  |  |  | bactericidal activity |  | no bactericidal effect

— US20100197727A1, “Quinoline Derivatives as Antibacterial Agents” (priority 2005, published 2010)
